From patent US8785483B2, “Methods for treating COPD” (The Board of Regents of the University of Texas System, priority 2010, dated 2014)

What was measured:
[1] = test system: Muc5B; experiment: Western blot of Muc5B in IL-13-treated SAEC monolayer; type: cell-based, human; details: IL-13 48 h, immunoblotting
Protocol: FIGS. 6A-6B. AR inhibition prevents IL-13-induced expression of Mucin and transcription factor SPDEF in airway epithelial cell monolayer. (A) The airway epithelial cell monolayer at ALI was serum starved without or with fidarestat and incubated with IL-13 for 18 h. Total RNA was isolated and subsequently RT-PCR was performed to assess the expression of Muc5AC and SPDEF. The bar diagrams show densitometric analysis of the corresponding blots (n=4). *p<0.001 vs Control; **p<0.001 vs IL-13; (B) The monolayer of ciliated airway cells at ALI was treated with AR inhibitor for 24 h and subsequently incubated with IL-13 for 24 or 48 h. At the end of incubation, cell lysate was prepared and subjected to western blotting using antibodies against Muc5AC, Muc5B, and SPDEF. The membranes were stripped and re-probed with antibodies against GAPDH to show the equal loading of protein. A representative blot is shown (n=4). *p<0.0001 vs Control; **p<0.001 vs IL-13. […] Protein levels were determined using Bradford reagent (Biorad, Hercules, Calif.). […] The blots were then washed, exposed to HRP-conjugated secondary antibodies (1:5,000 dilution) for 1 h, and the antigen-antibody complex was detected by enhanced chemiluminescence (Amersham Pharmacia Biotech, Piscataway, N.J., USA). […]

[2] = test system: STAT-6; experiment: RWE-induced STAT-6 phosphorylation in mouse lung epithelium (immunostaining); type: in vivo; details: RWE-sensitized and challenged mice, fidarestat 7 mg/kg body wt/day in drinking water, 20 h after challenge
Protocol: FIGS. 9A-9B. AR inhibition prevents phosphorylation of STAT-6 in mouse lung epithelium. The mice were sensitized and challenged with PBS or RWE, without or with AR inhibitor and 20 h later lungs were perfused and fixed with 4% paraformaldehyde, embedded in paraffin, and sectioned to […]. The sections were immunostained with p-STAT-6 specific antibodies using immunofluoroscence secondary antibodies (A) or DAB-based HRP conjugated antibodies counterstained with hematoxylin and eosin (B). Photomicrographs were acquired by fluorescence or light microscopy. A representative field for each group is shown (magnification: 200×). […] RWE, ragweed pollen extract; ARI, aldose reductase inhibitor.
Wild type C57BL/6 and Balb/cJ mice were purchased from Harlan Sprague-Dawley (San Diego, Calif., USA) and AR null mice on C57BL/6 background were bread by us at Animal resource center, UTMB, Galveston, Tex. Six-eight weeks old female mice were sensitized with RWE as previously described (Hwang et al., FASEB J. 19: 795-797, 2005). […]
Approximately 20 h after RWE-challenge, mice are killed, and their lungs perfused and fixed with 4% paraformaldehyde, embedded in paraffin, and 5 μm sections were obtained. […] Photomicrographs were acquired by a Photometrix CoolSNAP Fx camera mounted on a NIKON Eclipse TE 200 UV microscope using fluorescence or bright-field microscopy, respectively.

SMILES: NC(=O)[C@@H]1C[C@]2(NC(=O)NC2=O)c2cc(F)ccc2O1 [fidarestat, (2S,4S)-2-aminoformyl-6-fluoro-spiro[chroman-4,4′-imidazolidine]-2′,5′-dione]
- prevention of IL-13-induced increase in Muc5B protein [1]: ~50%
- RWE-induced phospho-STAT-6 staining in lung epithelium [2]: prevented by AR inhibition
